System: HeLa-Kb-A3-47 cells
Assay: Cell-surface HLA-A3 level after transfection with ER targeted precursors
Format: cell-based
Conditions: GAP-A3 staining (Figure 7B)

RVCEKMALY [R-Y] was tested, and the “Surface expression of HLA-A3 after ER targeted peptide” value was “increased the surface expression of HLA-A3”.
